The text below walks through data of PubChem BioAssay AID2060342 (Molecular Pharmacology Branch, DTP, NCI, 2025).

Structures are written as SMILES. “And” between values parts separate entries of the source, which are not always exact repeats. Equal values may be shown once.

For this assay, the system named is 171881-019-R-J1-PDC multicell spheroid viability. Put plainly: Anticancer human tumor 171881-019-R-J1-PDC patient-derived invasive breast carcinoma cell line growth inhibition [IpAb]. Particulars: for viability, T/C: stronger effect = lower value. The gist of the method:
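Spheroids of 60% malignant cells, 25% HUVEC and 15% MSC were exposed to targeted agents combined with ipatasertib or abemaciclib. Doses started at or near clinical Cmax (10 microM when unknown) and fell in half-log steps.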

The mark [1] stands for this setting: curve of first compound, second compound 0.1 µM.
[2] abbreviates: curve of first compound, second compound 0.316 µM.
Setting [3] is: curve of first compound, second compound 1 µM.
The mark [4] stands for this setting: second compound 0.1 µM, first compound 0.0316 µM.
[5] abbreviates: second compound 0.1 µM, first compound 0.1 µM.
The mark [6] stands for this setting: second compound 0.316 µM, first compound 0.0316 µM.
Setting [7] is: second compound 0.316 µM, first compound 0.1 µM.
[8] abbreviates: second compound 1 µM, first compound 0.0316 µM.
Setting [9] is: second compound 1 µM, first compound 0.1 µM.
[10] abbreviates: curve of first compound, second compound 0.01 µM.
[11] abbreviates: curve of first compound, second compound 0.0316 µM.
Setting [12] is: second compound 0.01 µM, first compound 0.0316 µM.
Setting [13] is: second compound 0.01 µM, first compound 0.1 µM.
[14] abbreviates: second compound 0.01 µM, first compound 0.316 µM.
The mark [15] stands for this setting: second compound 0.01 µM, first compound 1 µM.
Where [16] appears, read: second compound 0.01 µM, first compound 3.16 µM.
Setting [17] is: second compound 0.01 µM, first compound 10 µM.
Where [18] appears, read: second compound 0.0316 µM, first compound 0.0316 µM.
The mark [19] stands for this setting: second compound 0.0316 µM, first compound 0.1 µM.
The mark [20] stands for this setting: second compound 0.0316 µM, first compound 0.316 µM.
Where [21] appears, read: second compound 0.0316 µM, first compound 1 µM.
The mark [22] stands for this setting: second compound 0.0316 µM, first compound 3.16 µM.
Setting [23] is: second compound 0.0316 µM, first compound 10 µM.
The mark [24] stands for this setting: second compound 0.1 µM, first compound 0.316 µM.
Where [25] appears, read: second compound 0.1 µM, first compound 1 µM.
The mark [26] stands for this setting: second compound 0.1 µM, first compound 3.16 µM.
The mark [27] stands for this setting: second compound 0.1 µM, first compound 10 µM.
Setting [28] is: second compound 0.316 µM, first compound 0.316 µM.
Setting [29] is: second compound 0.316 µM, first compound 1 µM.
[30] abbreviates: second compound 0.316 µM, first compound 3.16 µM.
Where [31] appears, read: second compound 0.316 µM, first compound 10 µM.
[32] abbreviates: second compound 1 µM, first compound 0.316 µM.
Where [33] appears, read: second compound 1 µM, first compound 1 µM.
The mark [34] stands for this setting: second compound 1 µM, first compound 3.16 µM.
[35] abbreviates: second compound 1 µM, first compound 10 µM.
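Note: spheroids exposed to the agents for seven days before readout.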

As to `Cn1ncnc1[C@H]1c2n[nH]c(=O)c3cc(F)cc(c23)N[C@@H]1c1ccc(F)cc1` + CC(C)NCC(C(=O)N1CCN(c2ncnc3c2C(C)CC3O)CC1)c1ccc(Cl)cc1, the half-maximal inhibitory concentration (IC50) (commonly the midpoint of a concentration-inhibition curve) was greater than 0.1 µM under setting [1]; greater than 0.1 µM under setting [2]; less than 0.000316 µM under setting [3]; less than 0.000316 µM (curve of first compound, second compound 3.16 µM); less than 0.000316 µM (curve of first compound, second compound 10 µM). Besides, the viability, T/C (in general, the result in the treated group divided by that in the control group, in per cent) by setting is: (second compound 0.1 µM, first compound 0.000316 µM) 102%; (second compound 0.1 µM, first compound 0.001 µM) 114%; (second compound 0.1 µM, first compound 0.00316 µM) 121%; (second compound 0.1 µM, first compound 0.01 µM) 108%; under setting [4], 108%; under setting [5], 101%. Besides, the viability, T/C is, setting by setting: (second compound 0.316 µM, first compound 0.000316 µM) 74.8%; (second compound 0.316 µM, first compound 0.001 µM) 75.1%; (second compound 0.316 µM, first compound 0.00316 µM) 75.6%; (second compound 0.316 µM, first compound 0.01 µM) 72.6%; under setting [6], 65.8%; under setting [7], 60.8%. Also, the viability, T/C reads like this: (second compound 1 µM, first compound 0.000316 µM) 27.4%; (second compound 1 µM, first compound 0.001 µM) 24.4%; (second compound 1 µM, first compound 0.00316 µM) 20.7%; (second compound 1 µM, first compound 0.01 µM) 24.6%; under setting [8], 20.3%; under setting [9], 17.1%. The viability, T/C runs as follows: (second compound 3.16 µM, first compound 0.000316 µM) 10.7%; (second compound 3.16 µM, first compound 0.001 µM) 12.5%; (second compound 3.16 µM, first compound 0.00316 µM) 8.98%; (second compound 3.16 µM, first compound 0.01 µM) 10%; (second compound 3.16 µM, first compound 0.0316 µM) 8.89%; (second compound 3.16 µM, first compound 0.1 µM) 7.64%. The viability, T/C is, setting by setting: (second compound 10 µM, first compound 0.000316 µM) 5.76%; (second compound 10 µM, first compound 0.001 µM) 5.36%; (second compound 10 µM, first compound 0.00316 µM) 5.17%; (second compound 10 µM, first compound 0.01 µM) 5.3%; (second compound 10 µM, first compound 0.0316 µM) 4.77%; (second compound 10 µM, first compound 0.1 µM) 4.29%.
As for `Cc1nc(NC(=O)N2CCCC2C(N)=O)sc1-c1ccnc(C(C)(C)C(F)(F)F)c1` (stereo unspecified) + CCN1CCN(Cc2ccc(Nc3ncc(F)c(-c4cc(F)c5nc(C)n(C(C)C)c5c4)n3)nc2)CC1, the IC50 under setting [10] was determined as 0.783 µM; the IC50 under setting [11] worked out at 0.733 µM; the IC50 under setting [1] turned out to be 0.823 µM; the IC50 under setting [2] was found to be 0.977 µM; the IC50 under setting [3] worked out at 1.56 µM. Moreover, the viability, T/C was 109% under setting [12]; 112% under setting [13]; 72% under setting [14]; 44.7% under setting [15]; 15.7% under setting [16]; 1.42% under setting [17]. Besides, the viability, T/C under setting [18] is 118%; the viability, T/C under setting [19] is 108%; the viability, T/C under setting [20] is 75.7%; the viability, T/C under setting [21] is 40.9%; the viability, T/C under setting [22] is 13.5%; the viability, T/C under setting [23] was 2.7%. Also, the viability, T/C is 117% under setting [4]; 112% under setting [5]; 75.9% under setting [24]; 44.9% under setting [25]; 18.3% under setting [26]; 2.71% under setting [27]. The viability, T/C by setting is: under setting [6], 130%; under setting [7], 112%; under setting [28], 85.7%; under setting [29], 47.2%; under setting [30], 23%; under setting [31], 4.63%. Also, the viability, T/C is, setting by setting: under setting [8], 137%; under setting [9], 117%; under setting [32], 89.8%; under setting [33], 64.1%; under setting [34], 29.7%; under setting [35], 8.19%.
Take `Cn1cnc2c(F)c(Nc3ccc(Br)cc3Cl)c(C(=O)NOCCO)cc21`: the viability, T/C is 113% and 108% (compound 0.00949 µM); 106% and 96.2% (compound 0.03 µM); 124% and 98% (compound 0.0949 µM); 117% and 99.3% (compound 0.3 µM); 70.1% and 49.4% (compound 0.949 µM); 18.2% and 11.6% (compound 3 µM). Further, the IC50 (curve of compound) was 1.48 µM and 0.935 µM.
Take `C=CC(=O)N1CCN(c2nc(=O)n(-c3c(C)ccnc3C(C)C)c3nc(-c4c(O)cccc4F)c(F)cc23)C(C)C1` (stereo unspecified): the viability, T/C (compound 0.0316 µM) is 98.7% and 101%; the viability, T/C (compound 0.1 µM) was 92.3% and 95.8%; the viability, T/C (compound 0.316 µM) is 99% and 106%; the viability, T/C (compound 1 µM) is 94.1% and 95.3%; the viability, T/C (compound 3.16 µM) was 93.6% and 84.7%; the viability, T/C (compound 10 µM) is 35.2% and 31.8%. Further, where the note is “curve of compound”, the 50% inhibitory concentration (IC50) was 7.47 µM and 6.74 µM.
With `CC1(C)CCC(CN2CCN(c3ccc(C(=O)NS(=O)(=O)c4ccc(NCC5CCOCC5)c([N+](=O)[O-])c4)c(Oc4cnc5[nH]ccc5c4)c3)CC2)=C(c2ccc(Cl)cc2)C1` + CCN1CCN(Cc2ccc(Nc3ncc(F)c(-c4cc(F)c5nc(C)n(C(C)C)c5c4)n3)nc2)CC1, the IC50 under setting [10] is 5.42 µM; the IC50 under setting [11] worked out at 6.19 µM; the IC50 under setting [1] worked out at 5.54 µM; the 50% inhibitory concentration (IC50) under setting [2] stood at 5.97 µM; the IC50 under setting [3] was 6.55 µM. The viability, T/C by setting is: under setting [12], 84.5%; under setting [13], 79%; under setting [14], 76.6%; under setting [15], 72.4%; under setting [16], 83.4%; under setting [17], 16.6%. Further, the viability, T/C under setting [18] is 89.7%; the viability, T/C under setting [19] is 86.7%; the viability, T/C under setting [20] was 86.8%; the viability, T/C under setting [21] was 70.4%; the viability, T/C under setting [22] was 89.3%; the viability, T/C under setting [23] is 25.3%. The viability, T/C was 109% under setting [4]; 105% under setting [5]; 98.9% under setting [24]; 89% under setting [25]; 79% under setting [26]; 22.9% under setting [27]. Also, the viability, T/C under setting [6] is 120%; the viability, T/C under setting [7] is 117%; the viability, T/C under setting [28] was 109%; the viability, T/C under setting [29] is 99.7%; the viability, T/C under setting [30] was 89.2%; the viability, T/C under setting [31] was 21.1%. The viability, T/C runs as follows: under setting [8], 138%; under setting [9], 139%; under setting [32], 136%; under setting [33], 128%; under setting [34], 104%; under setting [35], 18.4%.
Regarding `CC(C)(C)c1cnc(CSc2cnc(NC(=O)C3CCNCC3)s2)o1`, the viability, T/C reads like this: (compound 0.00949 µM) 96% and 96.9%; (compound 0.03 µM) 109% and 96.1%; (compound 0.0949 µM) 116% and 119%; (compound 0.3 µM) 20.1% and 3.63%; (compound 0.949 µM) 0.52% and 0.41%; (compound 3 µM) 0.65% and 0.81%. The IC50 (curve of compound) was 0.202 µM and 0.176 µM.
